Test results reported in patent publication US20250099534A1, “UBIQUITIN HIGH AFFINITY CYCLIC PEPTIDES AND METHODS OF USE THEREOF” (TECHNION RESEARCH & DEVELOPMENT FOUNDATION LIMITED, priority 2022, published 2025).
Read-outs that look alike come from different tables or passages of the source. Starred links: 1 amine or outer side, 2 acyl side, 3 side chain; linkers in the order of their positions; H or OH if unused. Positions of bridges follow the written chain, without caps; N, C: chain ends. Residues, ends and D or L forms follow the SMILES beside them. *: point of attachment. Fluorescein(5-Mal) = O=C1OC2(c3ccc(O)cc3Oc3cc(O)ccc32)c2ccc(N3C(=O)CC(*)C3=O)cc21; X2 = CN(C)c1ccc2c(c1)Oc1cc(N(C)C)ccc1C21OC(=O)c2cc(N3C(=O)CC(*)C3=O)ccc21; X1 = O=C(c1cccc(C[*:2])c1)[*:1]

Key:
U2OS cells [1] = experiment: Cell uptake studies by live-cell confocal microscopy; conditions: 2 μM
Experimental: (§1) Cells were seeded for 24 h on ibidi 8 well μ-slides treated with poly-L-lysine to reach ˜90% confluency. Cells were then washed three times with warm PBS followed by incubation for 1 h with warm serum-free medium (DMEM) containing peptides. Thereafter, cells were washed two times with warm PBS. Prior to imaging, cells were washed with an optical culture medium and stained with Hoechst (2 μg/ml). Live cell CLSM images were captured using Confocal Zeiss LSM 710 equipped with 40×NA 1.2 water immersion objective lens using a 1 AU pinhole settings. Different lasers were used for the different tags (Hoechst, TAMRA, FITC), and during analysis, the μ-slide was kept at 37° C. in a humidified chamber.

U2OS cells [2] = test system: U2OS cells
Experimental: as §1

[3] = Solubility in buffer (aq.) medium; type: physicochemical

CC[C@H](C)[C@@H]1NC(=O)[C@H](Cc2c[nH]c3ccccc23)NC(=O)[C@H]([C@@H](C)CC)NC(=O)[C@H](CC(C)C)NC(=O)[C@H](CS)NC(=O)c2cccc(c2)CSC[C@@H](C(=O)NCC(=O)N[C@@H](C)C(=O)N[C@@H](CSC2CC(=O)N(c3ccc4c(c3)C(=O)OC43c4ccc(N(C)C)cc4Oc4cc(N(C)C)ccc43)C2=O)C(N)=O)NC(=O)[C@H](CC(C)C)NC(=O)[C@H]([C@@H](C)CC)NC(=O)[C@H](Cc2ccc(O)cc2)NC(=O)[C@@H]2CCCN2C(=O)[C@H](CC(N)=O)NC(=O)[C@H](CCCCN)NC(=O)[C@H](CO)NC(=O)[C@H](CO)NC(=O)CNC1=O (stereo partly drawn) [cyclic peptide 26] (CLIWIGSSKNPYILCGAC(X2)-NH2; linker N-15 via X1)
cell-permeability / delivery to live cells (U2OS cells [1]): efficient cell-permeability

CC[C@H](C)[C@@H]1NC(=O)[C@H](Cc2c[nH]c3ccccc23)NC(=O)[C@H]([C@@H](C)CC)NC(=O)[C@H](CC(C)C)NC(=O)[C@H](CS)NC(=O)c2cccc(c2)CSC[C@@H](C(=O)NCC(=O)N[C@@H](C)C(=O)N[C@@H](CSC2CC(=O)N(c3ccc4c(c3)C(=O)OC43c4ccc(O)cc4Oc4cc(O)ccc43)C2=O)C(N)=O)NC(=O)[C@H](CC(C)C)NC(=O)[C@H]([C@@H](C)CC)NC(=O)[C@H](Cc2ccc(O)cc2)NC(=O)[C@@H]2CCCN2C(=O)[C@H](CC(N)=O)NC(=O)[C@H](CCCCN)NC(=O)[C@H](CO)NC(=O)[C@H](CO)NC(=O)CNC1=O (stereo partly drawn) [cyclic peptide 29] (CLIWIGSSKNPYILCGAC(Fluorescein(5-Mal))-NH2; linker N-15 via X1)
cell-permeability / delivery to live cells (U2OS cells [2]): did not observe an efficient delivery

CC[C@H](C)[C@@H]1NC(=O)[C@H](Cc2c[nH]c3ccccc23)NC(=O)[C@H]([C@@H](C)CC)NC(=O)[C@H](CC(C)C)NC(=O)[C@H](CS)NC(=O)c2cccc(c2)CSC[C@@H](C(=O)NCC(N)=O)NC(=O)[C@H](CC(C)C)NC(=O)[C@H]([C@@H](C)CC)NC(=O)[C@H](Cc2ccc(O)cc2)NC(=O)[C@@H]2CCCN2C(=O)[C@H](CC(N)=O)NC(=O)[C@H](CCCCN)NC(=O)[C@H](CO)NC(=O)[C@H](CO)NC(=O)CNC1=O [cyclic peptide 2] (CLIWIGSSKNPYILCG-NH2; linker N-15 via X1)
aqueous solubility [3]: poor aqueous solubility
